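Five concentrations, 48 hours, 96-well plates. At the GI50, growth is halved.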 The source made the active and inactive calls. Cut-off read from the data, not from the text of the source: active = GI50 up to about 1.1 µM and inactive = higher. Some results are limits rather than exact numbers.

Some test systems named below: 786-0; BT-549; CAKI-1; DU-145; K562; MDA-MB-231; OVCAR-5; RPMI-8226; SF-268; SF-295; SF-539; SN12C; SW-620; T47D; TK-10; U-251; CCRF-CEM; Hs-578T; LOX IMVI.
Common to all, as to assay: NCI tumour cell line growth inhibition, 48 h

As for `NNC(=O)Cn1c2ccc(Br)cc2c2nc3ccccc3nc21`, the GI50 in the test with 786-0 was 17.9 µM (inactive); in the test with BT-549 it was > 100 µM (inactive); with CAKI-1 it was > 100 µM (inactive); in the test with DU-145, > 100 µM (inactive); in the test on K562 it was 33.8 µM (inactive); in the test on MDA-MB-231 it was > 100 µM (inactive). The GI50 with OVCAR-5 is 53.7 µM (inactive); with RPMI-8226 it was > 100 µM (inactive); with SF-268, > 100 µM (inactive); in the test with SF-295, 21.8 µM (inactive); with SF-539, > 100 µM (inactive); in the test with SN12C, > 100 µM (inactive). Further, the GI50 in the test on SW-620 is > 100 µM (inactive); in the test with T47D it was > 100 µM (inactive); in the test on TK-10, 56 µM (inactive); in the test with U-251, 43.7 µM (inactive).

Take `CC1C2CC(CC(=O)N2)C1(C)C` (configuration not stated): the GI50 with 786-0, in the test with BT-549, with CAKI-1, with CCRF-CEM, in the test on DU-145 and in the test on Hs-578T was > 100 µM (inactive) in each case. Also, the GI50 with K562, with MDA-MB-231, in the test with OVCAR-5, with SF-268, with SF-295 and with SF-539 was > 100 µM (inactive) in each case. In addition, the GI50 in the test with SN12C, with SW-620, in the test with T47D, in the test with TK-10 and in the test with U-251 was > 100 µM (inactive) each time.

Consider `COc1cc([N+](=O)[O-])c(OC)c2c(Nc3ccc(S(=O)(=O)O)c4cc(S(=O)(=O)O)cc(S(=O)(=O)O)c34)cc(C)nc12`, for which the GI50 in the test with 786-0, in the test with BT-549, in the test on CAKI-1, with CCRF-CEM, with DU-145 and with Hs-578T was > 100 µM (inactive) throughout. The GI50 with LOX IMVI, in the test on MDA-MB-231, with OVCAR-5, with SF-268, in the test on SF-539 and in the test on SN12C was > 100 µM (inactive) throughout. In addition, the GI50 in the test with SW-620, in the test on T47D, with TK-10 and in the test on U-251 was > 100 µM (inactive) in each case.

On to `N#Cc1c(-c2ccccc2)cc(Nc2cccc(C(F)(F)F)c2)n2c1nc1ccccc12`, for which the GI50 in the test on 786-0 is 1.54 µM (inactive); in the test with BT-549 it was 3.82 µM (inactive); in the test with CAKI-1, 1.91 µM (inactive); in the test with DU-145, 4.04 µM (inactive); in the test on LOX IMVI it was 1.2 µM (inactive); in the test on MDA-MB-231, 1.71 µM (inactive). The GI50 in the test with OVCAR-5 is 2.68 µM (inactive); with RPMI-8226, 0.237 µM (active); with SF-268, 1.29 µM (inactive); in the test on SF-295 it was 1.7 µM (inactive); in the test with SF-539, 2.22 µM (inactive); in the test with SN12C it was 0.519 µM (active). Besides, the GI50 with SW-620 is 3.05 µM (inactive); with T47D, 0.764 µM (active); with TK-10, 2.56 µM (inactive); with U-251, 0.611 µM (active).

`C=C1C[C@H]2C=Nc3cc(OCCCOc4cc5c(cc4OC)C(=O)N4CC(=C)C[C@H]4C=N5)c(OC)cc3C(=O)N2C1` [SJG-136]: the GI50 with 786-0 is < 0.01 µM (active); in the test with BT-549, 0.0111 µM (active); with CAKI-1, < 0.01 µM (active); with CCRF-CEM it was < 0.01 µM (active); with Hs-578T, 0.0426 µM (active); in the test with K562 it was < 0.01 µM (active). Also, the GI50 in the test on LOX IMVI was < 0.01 µM (active); in the test on MDA-MB-231, < 0.0108 µM (active); in the test on RPMI-8226 it was 0.0121 µM (active); in the test on SF-268, 0.000832 µM (active); in the test on SF-295 it was < 0.01 µM (active); in the test with SF-539, < 0.01 µM (active). Also, the GI50 with SN12C is < 0.01 µM (active); in the test with SW-620, 0.0123 µM (active); with T47D, < 0.01 µM (active); in the test with TK-10, 0.0316 µM (active); in the test with U-251, < 0.01 µM (active).

With `COc1ccc(Cn2c(C)nc3c2C(=O)c2ccccc2C3=O)cc1`, the GI50 in the test on 786-0 is 5.4 µM (inactive); in the test with CCRF-CEM, 4.05 µM (inactive); in the test with K562, 3.2 µM (inactive); in the test on LOX IMVI, 2.52 µM (inactive); in the test on SF-268 it was 4.49 µM (inactive); in the test with SF-295 it was 9.48 µM (inactive). Further, the GI50 with SF-539 is 3.81 µM (inactive); in the test on SN12C it was 13.9 µM (inactive); in the test on SW-620, 8.07 µM (inactive); in the test with TK-10, 11 µM (inactive); with U-251, 6.32 µM (inactive).

For `O=C1CC(=O)c2c(N3CCCC3)sc(N3CCCC3)c21`, the GI50 was > 100 µM (inactive) in the test with 786-0; > 100 µM (inactive) in the test with BT-549; > 100 µM (inactive) in the test with CAKI-1; 41.2 µM (inactive) in the test on CCRF-CEM; > 100 µM (inactive) in the test on DU-145; > 100 µM (inactive) in the test with Hs-578T. Also, the GI50 in the test with K562 was 57.4 µM (inactive); in the test on LOX IMVI it was > 100 µM (inactive); in the test on OVCAR-5 it was > 100 µM (inactive); with RPMI-8226, > 100 µM (inactive); in the test with SF-268, > 100 µM (inactive); with SF-295, > 100 µM (inactive). The GI50 in the test with SF-539, with SN12C, in the test on SW-620, with T47D, in the test on TK-10 and in the test with U-251 was > 100 µM (inactive) throughout.

As to `NCCC(=O)N[C@H](Cc1cc(O)c(O)c(SCC(NC(=O)CC[C@H](N)C(=O)O)C(=O)NCC(=O)O)c1)C(=O)O` (some centres not stated), the GI50 in the test on 786-0, with BT-549, with CAKI-1, in the test with DU-145, in the test with K562 and with MDA-MB-231 was > 50 µM (inactive) in each case. In addition, the GI50 in the test with OVCAR-5, with RPMI-8226, with SF-268, with SF-295, with SN12C and in the test with SW-620 was > 50 µM (inactive) each time. The GI50 with TK-10 and in the test with U-251 was > 50 µM (inactive) in each case.

For the compound `NC(Cc1ccc(B(O)O)cc1)C(=O)NC(CO)CO` (configuration not stated), the GI50 in the test on 786-0, in the test with BT-549, in the test on CAKI-1, with CCRF-CEM, in the test on Hs-578T and with K562 was > 100 µM (inactive) in each case. Further, the GI50 in the test with LOX IMVI, with MDA-MB-231, in the test on OVCAR-5, in the test with RPMI-8226, with SF-268 and in the test on SF-295 was > 100 µM (inactive) each time. The GI50 with SF-539, in the test on SN12C, in the test on SW-620, in the test on TK-10 and with U-251 was > 100 µM (inactive) in each case.

Consider `COc1cccc2c1NC(=O)Cc1c-2[nH]c2ccccc12`, for which the GI50 in the test with 786-0 was > 100 µM (inactive); in the test with CAKI-1 it was > 100 µM (inactive); in the test with CCRF-CEM it was > 100 µM (inactive); in the test on DU-145, > 100 µM (inactive); in the test with Hs-578T, 87.7 µM (inactive); in the test with K562 it was 53.1 µM (inactive). Further, the GI50 in the test with LOX IMVI is > 100 µM (inactive); in the test on MDA-MB-231 it was > 100 µM (inactive); in the test on OVCAR-5, > 100 µM (inactive); in the test with RPMI-8226, 31.2 µM (inactive); in the test with SF-268, > 100 µM (inactive); with SF-295, > 100 µM (inactive). Further, the GI50 was > 100 µM (inactive) in the test with SF-539; > 100 µM (inactive) in the test on SW-620; 40.6 µM (inactive) with T47D; > 100 µM (inactive) with TK-10; > 100 µM (inactive) with U-251.

Take `COc1ccccc1Cn1c2c(c3cc(O)ccc31)C(=O)c1ccccc1C2=O`: the GI50 in the test with 786-0 is 13.3 µM (inactive); in the test with BT-549, > 100 µM (inactive); with CAKI-1 it was 16.7 µM (inactive); in the test with CCRF-CEM, 37.5 µM (inactive); in the test with DU-145 it was 39.4 µM (inactive); with Hs-578T, 36.6 µM (inactive). Moreover, the GI50 was > 100 µM (inactive) in the test on K562; 12.4 µM (inactive) with LOX IMVI; 12.4 µM (inactive) in the test on MDA-MB-231; 10.4 µM (inactive) in the test on OVCAR-5; 15.3 µM (inactive) in the test with RPMI-8226; 19.7 µM (inactive) in the test on SF-268. The GI50 with SF-295 is 11.2 µM (inactive); in the test on SF-539, 12.7 µM (inactive); in the test with SN12C, 22.8 µM (inactive); in the test on SW-620, 79.4 µM (inactive); in the test on TK-10, 72.8 µM (inactive); in the test on U-251 it was 16 µM (inactive).

`COc1cc(/C=C2\CCC(C)C3=C2NC(=S)NC3c2cc(OC)c(OC)c(OC)c2)cc(OC)c1OC` (configuration not stated): the GI50 was 83.9 µM (inactive) with 786-0; 81.5 µM (inactive) in the test on CAKI-1; 25.2 µM (inactive) with CCRF-CEM; 56.8 µM (inactive) in the test with DU-145; 37 µM (inactive) with Hs-578T; 26.1 µM (inactive) in the test with K562. Also, the GI50 in the test on LOX IMVI is 53.2 µM (inactive); with MDA-MB-231, 34.5 µM (inactive); in the test on OVCAR-5, > 100 µM (inactive); in the test on RPMI-8226 it was 18.5 µM (inactive); in the test on SF-268, 73.6 µM (inactive); in the test on SN12C, 68.4 µM (inactive). In addition, the results for the GI50 in the test on SW-620, in the test with TK-10 and in the test with U-251 were 96.2 µM (inactive), 70.6 µM (inactive) and 46.8 µM (inactive), respectively.

The record behind these values is ChEMBL document CHEMBL1201862, “PubChem BioAssay data set” (2004).
